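These data come from cells grown in 96-well plates and exposed to compound for 48 hours at five concentrations. The concentration for 50% growth inhibition is given as GI50.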 Calls of active or inactive are those of the source. No stated cut-off is given here; in the data, active = GI50 up to about 1.1 µM and inactive = higher.
How the values were obtained:
Assay in all cases: NCI-60 cell line screen, 48 h
[1] = test system: DU-145
[2] = test system: UACC-257
[3] = test system: EKVX
[4] = test system: HOP-92
[5] = test system: OVCAR-5
[6] = test system: M14
[7] = test system: OVCAR-4
[8] = test system: MOLT-4
[9] = test system: CAKI-1
[10] = test system: SR
[11] = test system: OVCAR-3
[12] = test system: SF-539
[13] = test system: HT-29
[14] = test system: OVCAR-8
[15] = test system: SK-MEL-28
[16] = test system: SW-620
[17] = test system: HL-60
[18] = test system: HCC 2998
[19] = test system: Hs-578T
[20] = test system: T47D

Measured: GI50

O=C/C(=C(/Cl)c1ccc(O)cc1)c1ccccc1
inactive: [1] 62.5 µM | [2] 31.2 µM | [3] 28.2 µM | [4] 16.6 µM | [5] > 100 µM | [6] 27.8 µM | [7] 22.2 µM | [8] 16.6 µM | [9] 27.4 µM | [10] > 100 µM | [11] 17.1 µM | [12] 28.6 µM | [13] 27.1 µM | [14] 35.9 µM | [15] 20.7 µM | [16] 27.6 µM | [17] 38.5 µM | [18] 71.9 µM

Nc1ccc(/N=N/c2ccccc2)cc1
inactive: [2] > 100 µM | [3] 28.2 µM | [19] > 100 µM | [4] 30.6 µM | [5] > 100 µM | [6] 44.4 µM | [7] > 100 µM | [8] 11.7 µM | [9] 93.1 µM | [10] 19.3 µM | [11] 18.8 µM | [12] 35.2 µM | [13] 28.6 µM | [14] 28 µM | [15] > 100 µM | [16] 51.8 µM | [17] 13.4 µM | [18] 61.5 µM

O=c1[nH]c(=O)n(COCCOCc2ccccc2)cc1Nc1ccccc1
inactive: [1] > 100 µM | [2] > 100 µM | [3] > 100 µM | [4] > 100 µM | [5] > 100 µM | [6] > 100 µM | [7] > 100 µM | [8] 59.4 µM | [9] > 100 µM | [10] > 100 µM | [20] 24.2 µM | [11] > 100 µM | [12] > 100 µM | [13] > 100 µM | [14] > 100 µM | [15] > 100 µM | [16] > 100 µM | [17] 41.9 µM | [18] > 100 µM

Cc1cccc2cc3c(ccc4ccccc43)c[n+]12
inactive: [1] 64.6 µM | [2] 14 µM | [3] 4.61 µM | [19] 5.38 µM | [5] > 100 µM | [8] 4.89 µM | [10] 6.43 µM | [11] 2.06 µM | [12] 16.7 µM | [13] 24.7 µM | [14] 15.4 µM | [15] 14.7 µM | [16] 21.3 µM | [17] 48.4 µM | [18] 16.3 µM

C=CCN1CCC(O)(c2cc(C(=O)OCC)[nH]c2-c2cc(C)no2)C1 (configuration not stated)
inactive: [1] > 100 µM | [2] > 100 µM | [3] > 100 µM | [4] > 100 µM | [5] > 100 µM | [6] > 100 µM | [7] > 100 µM | [8] > 100 µM | [9] > 100 µM | [20] > 100 µM | [11] > 100 µM | [12] > 100 µM | [13] > 100 µM | [14] > 100 µM | [15] > 100 µM | [16] > 100 µM | [17] > 100 µM

CSc1nc(Cl)c(Br)c(Nc2cnc(O)nc2O)n1
inactive: [1] 15.6 µM | [2] 19.2 µM | [3] 15.3 µM | [4] 13.1 µM | [6] 27.9 µM | [7] 15.6 µM | [8] 13.4 µM | [9] 1.79 µM | [20] 13.8 µM | [11] 14.6 µM | [12] 20.1 µM | [13] 15.8 µM | [14] 15.6 µM | [15] 29.5 µM | [16] 27.1 µM | [17] 2.06 µM | [18] 17.8 µM

COc1ccc(-c2nc3ccccc3s2)cc1OC
inactive: [2] > 100 µM | [19] 13.4 µM | [4] 6.59 µM | [5] > 100 µM | [6] 94.4 µM | [7] 46.6 µM | [8] > 100 µM | [10] > 100 µM | [12] 54.6 µM | [13] 31.6 µM | [14] 63.4 µM | [15] > 100 µM | [16] > 100 µM | [17] > 100 µM

Cc1cccc(NC2=NC(=O)C(CC(=O)Nc3ccccc3Cl)S2)c1 (configuration not stated)
inactive: [2] > 100 µM | [3] > 100 µM | [4] > 100 µM | [5] > 100 µM | [6] > 100 µM | [7] > 100 µM | [8] > 100 µM | [9] > 100 µM | [10] > 100 µM | [11] > 100 µM | [12] > 100 µM | [13] > 100 µM | [14] > 100 µM | [15] > 100 µM | [16] > 100 µM | [17] > 100 µM | [18] > 100 µM

COc1ccccc1-c1nc[nH]c1-c1ccccc1OC
inactive: [2] 25.3 µM | [3] 25.6 µM | [4] 17.3 µM | [5] 37.9 µM | [6] 19.7 µM | [7] 25.8 µM | [8] 29.2 µM | [9] 31 µM | [20] 37.6 µM | [11] 24.2 µM | [15] 33.7 µM | [16] 40.3 µM

Source: ChEMBL document CHEMBL1201862, “PubChem BioAssay data set” (2004)
